Earlier results on 3 compounds are cited in paper PMC10425256, “Antioxidant and Enzyme Inhibitory Potential of Streptomyces sp. G-18 Grown in Various Media” (International Journal of Microbiology, 2023).

`CC(C)=CCC/C(C)=C/Cc1ccc(O)c2nc3cccc(O)c3nc12` [Geranylphenazinediol]: the AChE inhibition result in the series on AChE is reported as “low micromolar range”.

Turning to `CCCCC/C=C\C/C=C\C[C@@H](C[C@@H]1OC(=O)[C@H]1CCCCCC)OC(=O)[C@H](CC(C)C)NC=O` [lipstatin], the “inhibition against lipase enzymes” value in the series with lipase enzymes is “showed inhibition”.

Cyclipostins: in the series on lipase enzymes, the “inhibition against lipase enzymes” value is “showed inhibition”.
